“And” between values parts separate entries of the source, which are not always exact repeats. Equal values may be shown once.
Columns and labels:
[1] = system: DD013 dedifferentiated liposarcoma; experiment: Antitumour activity in DD013 dedifferentiated liposarcoma xenograft model; format: in vivo, Athymic nude mice; conditions: for DD0113 tumour weight, Mean / DD0113 tumour weight, individual mouse: Doxorubicin 8 mg/kg q7dx2
Procedure: (§1) Experiments were performed with female Athymic nude mice, 9-10 weeks old obtained from Harlan Laboratories (Udine, Italy). They were maintained under Specific Pathogen Free conditions with constant temperature and humidity, according to the institutional guidelines.
(§2) Tumour growth mice was monitored two/three times a week (depending on tumour growth rate, to avoid unnecessary stress to the animals) by Vernier caliper. Mice were sacrificed when tumour reached a mean weight of 2±0.5 gr. The antitumour activity will be expressed as T/C %, where T and C were the mean tumour weight of treated and control groups, respectively. Mice were monitored daily and weighted at least two times a week. Tolerability was evaluated on the basis of body weight loss (BWL) and clinical observation.
Statistical analysis was performed with GraphPad Prism version 6.01 software (GraphPad software, Inc., La Jolla, CA, USA). ANOVA test was performed to evaluate if there were statistically significant differences between treated and control groups.
Briefly, xenografts were obtained by transplanting 3-4 mm tumour fragments s.c. in the flanks of mice. The growing tumour masses were measured with the aid of a Vernier caliper, and the tumour weights (TW, 1 mm^3=1 mg) were calculated by the formula: length×(width) 2/2. When tumour load achieved about 200-400 mg, mice were randomized into the experimental groups.

[2] = Drug tolerability (body weight) in DD013 dedifferentiated liposarcoma xenograft model; format: in vivo, Athymic nude mice; conditions: for BWL % / Mouse body weight, Mean: Doxo (8 mg/kg)
Procedure: as §1, §2

SMILES: COc1cccc2c1C(=O)c1c(O)c3c(c(O)c1C2=O)C[C@@](O)(C(=O)CO)C[C@@H]3O[C@H]1C[C@H](N)[C@H](O)[C@H](C)O1 [Doxorubicin, reference compound]
- optimal T/C ([1]; 8 mg/kg i.v. q7dx2): 34.1%
- effect on tumour growth ([1]; 8 mg/kg q7dx2): No arrest of tumour growth was observed
- DD0113 tumour weight, Mean ([1]; day 23 from inoculum): 199.3 mg
- DD0113 tumour weight, individual mouse ([1]; day 23 from inoculum): 302.2 mg and 277.0 mg and 253.6 mg and 228.6 mg and 196.0 mg and 178.0 mg and 147.0 mg and 114.2 mg and 97.6 mg
- DD0113 tumour weight, Mean ([1]; day 26 from inoculum): 295.8 mg
- DD0113 tumour weight, individual mouse ([1]; day 26 from inoculum): 464.9 mg and 410.3 mg and 365.9 mg and 384.0 mg and 308.8 mg and 283.4 mg and 232.9 mg and 87.4 mg
- DD0113 tumour weight, Mean ([1]; day 29 from inoculum): 336.6 mg
- DD0113 tumour weight, individual mouse ([1]; day 29 from inoculum): 492.1 mg and 380.4 mg and 478.9 mg and 477.1 mg and 398.0 mg and 313.2 mg and 252.9 mg and 147.9 mg and 89.3 mg
- DD0113 tumour weight, Mean ([1]; day 33 from inoculum): 409.1 mg
- DD0113 tumour weight, individual mouse ([1]; day 33 from inoculum): 566.5 mg and 526.0 mg and 691.7 mg and 549.0 mg and 444.0 mg and 344.6 mg and 295.0 mg and 150.3 mg
- DD0113 tumour weight, Mean ([1]; day 36 from inoculum): 425.8 mg
- DD0113 tumour weight, individual mouse ([1]; day 36 from inoculum): 549.6 mg and 572.5 mg and 610.4 mg and 519.4 mg and 503.4 mg and 361.9 mg and 345.6 mg and 240.6 mg
- DD0113 tumour weight, Mean ([1]; day 40 from inoculum): 499.7 mg
- DD0113 tumour weight, individual mouse ([1]; day 40 from inoculum): 578.4 mg and 652.6 mg and 762.1 mg and 750.9 mg and 531.1 mg and 424.1 mg and 401.6 mg and 244.9 mg and 151.8 mg
- DD0113 tumour weight, Mean ([1]; day 43 from inoculum): 543.1 mg
- DD0113 tumour weight, individual mouse ([1]; day 43 from inoculum): 529.7 mg and 810.5 mg and 868.0 mg and 780.2 mg and 575.9 mg and 420.0 mg and 428.4 mg and 263.0 mg and 212.3 mg
- DD0113 tumour weight, Mean ([1]; day 47 from inoculum): 666.3 mg
- DD0113 tumour weight, individual mouse ([1]; day 47 from inoculum): 623.2 mg and 800.6 mg and 669.1 mg and 636.6 mg and 529.5 mg and 430.2 mg and 224.5 mg
- DD0113 tumour weight, Mean ([1]; day 50 from inoculum): 716.0 mg
- DD0113 tumour weight, individual mouse ([1]; day 50 from inoculum): 561.6 mg and 1194.0 mg and 680.6 mg
- DD0113 tumour weight, Mean ([1]; day 54 from inoculum): 810.3 mg
- DD0113 tumour weight, individual mouse ([1]; day 54 from inoculum): 776.7 mg and 1306.3 mg and 1175.7 mg and 807.3 mg
- DD0113 tumour weight, Mean ([1]; day 58 from inoculum): 958.1 mg
- DD0113 tumour weight, individual mouse ([1]; day 58 from inoculum): 819.5 mg and 1324.9 mg and 1508.4 mg and 1392.3 mg
- DD0113 tumour weight, Mean ([1]; day 62 from inoculum): 1128.5 mg
- DD0113 tumour weight, individual mouse ([1]; day 62 from inoculum): 955.7 mg and 1686.9 mg and 1777.9 mg and 1604.2 mg
- DD0113 tumour weight, Mean ([1]; day 65 from inoculum): 1312.4 mg
- DD0113 tumour weight, individual mouse ([1]; day 65 from inoculum): 960.1 mg and 1836.1 mg and 2144.7 mg and 1949.8 mg and 1415.2 mg
- DD0113 tumour weight, Mean ([1]; day 69 from inoculum): 1491.3 mg
- DD0113 tumour weight, individual mouse ([1]; day 69 from inoculum): 1238.0 mg and 2045.0 mg and 2383.0 mg and 2019.6 mg and 1526.2 mg
- DD0113 tumour weight, Mean ([1]; day 72 from inoculum): 1712.4 mg
- DD0113 tumour weight, individual mouse ([1]; day 72 from inoculum): 1440.5 mg and 2810.6 mg and 2245.9 mg and 1770.1 mg
- DD0113 tumour weight, Mean ([1]; day 75 from inoculum): 1970.8 mg
- DD0113 tumour weight, individual mouse ([1]; day 75 from inoculum): 1747.2 mg and 3155.1 mg and 2700.8 mg and 2034.9 mg
- maximum BWL ([2]; 8 mg/kg, day 33): 5.2%

SMILES: COc1cccc2c1C(=O)c1c(O)c3c(c(O)c1C2=O)C[C@@](O)(C(=O)CO)C[C@@H]3O[C@H]1C[C@H](N)[C@H](O)[C@H](C)O1 [Doxo]
- BWL % ([2]; day 23 from inoculum): 0.0%
- Mouse body weight, Mean ([2]; day 23 from inoculum): 23.7 g
- BWL % ([2]; day 26 from inoculum): −2.6%
- Mouse body weight, Mean ([2]; day 26 from inoculum): 23.0 g
- BWL % ([2]; day 29 from inoculum): −0.3%
- Mouse body weight, Mean ([2]; day 29 from inoculum): 23.6 g
- BWL % ([2]; day 33 from inoculum): −5.2%
- Mouse body weight, Mean ([2]; day 33 from inoculum): 22.4 g
- BWL % ([2]; day 36 from inoculum): −1.7%
- Mouse body weight, Mean ([2]; day 36 from inoculum): 23.3 g
- BWL % ([2]; day 40 from inoculum): 0.7%
- Mouse body weight, Mean ([2]; day 40 from inoculum): 23.8 g
- BWL % ([2]; day 43 from inoculum): 4.0%
- Mouse body weight, Mean ([2]; day 43 from inoculum): 24.6 g
- BWL % ([2]; day 47 from inoculum): 8.4%
- Mouse body weight, Mean ([2]; day 47 from inoculum): 25.7 g
- BWL % ([2]; day 50 from inoculum): 5.1%
- Mouse body weight, Mean ([2]; day 50 from inoculum): 24.9 g
- BWL % ([2]; day 54 from inoculum): 5.5%
- Mouse body weight, Mean ([2]; day 54 from inoculum): 25.0 g
- BWL % ([2]; day 58 from inoculum): 5.8%
- Mouse body weight, Mean ([2]; day 58 from inoculum): 25.0 g
- BWL % ([2]; day 62 from inoculum): 8.9%
- Mouse body weight, Mean ([2]; day 62 from inoculum): 25.8 g
- BWL % ([2]; day 65 from inoculum): 7.4%
- Mouse body weight, Mean ([2]; day 65 from inoculum): 25.4 g
- Mouse body weight, Mean ([2]; day 69 from inoculum): 26.6 g
- BWL % ([2]; day 72 from inoculum): 10.0%
- Mouse body weight, Mean ([2]; day 72 from inoculum): 26.0 g
- BWL % ([2]; day 75 from inoculum): 10.3%
- Mouse body weight, Mean ([2]; day 75 from inoculum): 26.1 g

From patent US12257237B2 (priority 2017, dated 2025)
